In assay [1] the target is H3255 (EGFR L858R) (Homo sapiens, UniProt P00533, L858R). The assay is described as follows: EGFR target modulation in H3255 cell line (phospho-EGFR Y1173 ELISA). Type of assay: cell-based. As for the experimental part:
(§1) EGFR Target Modulation in H1975, H3255 and HCC827 Cell Lines Tissue Culture. Cells were maintained in 10% FBS/RPMI supplemented with 100 μg/ml Penicillin/Streptomycin (Hyclone #SH30236.01). […] The cells were allowed to incubate overnight in a 37° C., 5% CO2 humidified tissue culture incubator. […] The serial diluted compounds were transferred to the plate containing cells by using a 50 nl Pin Head device (Perkin Elmer) and the cells were placed back in the incubator for 3 hours. Phospho-EGFR ([…]) Target Modulation Assay. The media was reduced to 20 ul using a Bio-Tek ELx 405 SelectTM plate washer. […] The plates were shaken at 4° C. for 20 minutes. An aliquot of 25 ul from each well was transferred to pEGFR(Y1173) ELISA plates for analysis. Phospho-EGFR ([…]) ELISA. Solid white high-binding ELISA plates (Greiner #781074) were coated with 5 ug/ml anti-EGFR capture antibody (R&D Systems #AF231) overnight in 50 mM carbonate/bicarbonate pH 9.5 buffer. Plates were blocked with 1% BSA (Sigma #A7030) in PBS for 1 hour at room temperature. Wash steps were carried out with a Bio-Tek ELx405 SelectTM using 4 cycles of 100 ul TBS-T (20 mM Tris, 137 mM NaCl, 0.05% Tween-20) per well. […] Lysis was allowed to occur for 20 minutes on ice. A 25 ul aliquot was added to each well of the blocked ELISA plate and incubated overnight at 4° C. with gentle shaking. […] After washing, 1:2,000 anti-rabbit-HRP (Cell Signaling #7074) in 0.2% BSA/TBS-T was added and incubated for 1 hour at room temperature. Chemiluminescent detection was carried out with SuperSignal ELISA Pico substrate (ThermoScientific #37069). Signal was read on EnVision plate reader using built-in UltraLUM setting. Data Analysis. Control cells treated with EGF were set to 100% maximum response. […] With these parameters, the IC50's for each compound in each cell line was calculated using non-linear curve fitting analysis.
A general note: An ELISA detects its analyte on a solid surface through an enzyme-linked reagent.

The target of assay [2] is human EGFR L858R/T790M (NIH/3T3 cells) (Homo sapiens, UniProt P00533, L858R/T790M). In words: EGFR target modulation in engineered NIH/3T3 cell lines (phospho-EGFR Y1068 AlphaLISA), EGFR L858R/T790M. Type of assay: cell-based. The settings on record: engineered NIH/3T3 cells, read-out: NIH3T3 IC50 (μM) EGFR (L858R/T790M). Summed up: (§2)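 Read-out is phospho-Y1068 AlphaLISA on cell lysates, with anti-total EGFR at 1 nM final equilibrated 1 h at room temperature. Cells were dosed 3 h with a 12-point 1:3 series starting from a 10 μM stock. Only the WT line received 50 ng/ml EGF for 5 min.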
(Bead proximity is the source of the signal in Alpha formats.)

Assay [3] deals with H1975 (EGFR L858/T790M) (Homo sapiens, UniProt P00533, L858R/T790M). In words: EGFR target modulation in H1975 cell line (phospho-EGFR Y1173 ELISA). Type of assay: cell-based. The method, then:
as §1

The target of assay [4] is T1, EGFR(L858R/T790M) (Homo sapiens, UniProt P00533, L858R/T790M).
T1 construct: purchased from Carna (GST-a.a. 669-1210)
The assay is described as follows: EGFR biochemical assay (HTRF), IC50 determinations. The procedure, abridged:
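Two formats were run: compound preincubated at room temperature with enzyme and biotin-TK peptide before ATP starts the reaction, or no preincubation with enzyme added last. Reactions ran 60 min at room temperature and were stopped with EDTA. Phosphopeptide was read by HTRF (PT66K/SAXL, 1 h).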
Background: TR-FRET usually uses a lanthanide donor and a delayed reading to cut background.

In assay [5] the target is human EGFR L858R (NIH/3T3 cells) (Homo sapiens, UniProt P00533, L858R). In words: EGFR target modulation in engineered NIH/3T3 cell lines (phospho-EGFR Y1068 AlphaLISA), EGFR L858R. Type of assay: cell-based. The settings on record: engineered NIH/3T3 cells, read-out: NIH3T3 IC50 (μM) EGFR (L858R). Summed up:
as §2

In assay [6] the target is HEKn (EGFR WT) (Homo sapiens, UniProt P00533). In words: EGFR target modulation in HEKn (EGFR-WT) cell line (phospho-EGFR Y1173 ELISA). Conditions: value outside parentheses. Type of assay: cell-based. As for the experimental part:
EGFR Target Modulation in HEKn (EGFR-WT) Cell Line Tissue Culture. Human neonatal epithelial keratinocytes (Invitrogen #C-001-5C) were maintained in EpiLife media (Invitrogen #[…]) supplemented with growth factors (Invitrogen #S-001-5). Cells were harvested with 0.05% Trypsin/EDTA (Hyclone #SH30236.01) and quenched with 5% FBS/EpiLife media. […] The serial diluted compounds were transferred to the plate containing cells by using a 50 nl Pin Head device (Perkin Elmer) and the cells were placed back in the incubator for 3 hours. […] Phospho-EGFR (Y1173) ELISA. Solid white high-binding ELISA plates (Greiner #781074) were coated with 5 ug/ml anti-EGFR capture antibody (R&D Systems #AF231) overnight in 50 mM carbonate/bicarbonate pH 9.5 buffer. […] Wash steps were carried out with a Bio-Tek ELx405 SelectTM using 4 cycles of 100 ul TBS-T (20 mM Tris, 137 mM NaCl, 0.05% Tween-20) per well. […] Lysis was allowed to occur for 20 minutes on ice. A 25 ul aliquot was added to each well of the blocked ELISA plate and incubated overnight at 4° C. with gentle shaking. […] After washing, 1:2,000 anti-rabbit-HRP (Cell Signaling #7074) in 0.2% BSA/TBS-T was added and incubated for 1 hour at room temperature. Chemiluminescent detection was carried out with SuperSignal ELISA Pico substrate (ThermoScientific #37069). Signal was read on EnVision plate reader using built-in UltraLUM setting. Data Analysis. Control cells treated with EGF were set to 100% maximum response. […] With these parameters, the IC50's for each compound in each cell line was calculated using non-linear curve fitting analysis.

Assay [7] addresses human EGFR WT (NIH/3T3 cells, EGF-induced) (Homo sapiens, UniProt P00533). The assay is described as follows: EGFR target modulation in engineered NIH/3T3 cell lines (phospho-EGFR Y1068 AlphaLISA), EGFR WT. Type of assay: cell-based. Conditions: engineered NIH/3T3 cells, read-out: NIH3T3 IC50 (μM) EGFR (WT). The procedure, abridged: as §2
[8] abbreviates: EGFR (L858R/T790M) with 90 min pre-incubation, read-out: IC50 (μM) Column B.
The mark [9] stands for this setting: EGFR (L858R/T790M) with no pre-incubation, read-out: IC50 (μM) Column A.

Read-outs that look alike come from different tables or passages of the source.

Chain of human EGFR L858R (NIH/3T3 cells) (P00533 25-1210 L858R): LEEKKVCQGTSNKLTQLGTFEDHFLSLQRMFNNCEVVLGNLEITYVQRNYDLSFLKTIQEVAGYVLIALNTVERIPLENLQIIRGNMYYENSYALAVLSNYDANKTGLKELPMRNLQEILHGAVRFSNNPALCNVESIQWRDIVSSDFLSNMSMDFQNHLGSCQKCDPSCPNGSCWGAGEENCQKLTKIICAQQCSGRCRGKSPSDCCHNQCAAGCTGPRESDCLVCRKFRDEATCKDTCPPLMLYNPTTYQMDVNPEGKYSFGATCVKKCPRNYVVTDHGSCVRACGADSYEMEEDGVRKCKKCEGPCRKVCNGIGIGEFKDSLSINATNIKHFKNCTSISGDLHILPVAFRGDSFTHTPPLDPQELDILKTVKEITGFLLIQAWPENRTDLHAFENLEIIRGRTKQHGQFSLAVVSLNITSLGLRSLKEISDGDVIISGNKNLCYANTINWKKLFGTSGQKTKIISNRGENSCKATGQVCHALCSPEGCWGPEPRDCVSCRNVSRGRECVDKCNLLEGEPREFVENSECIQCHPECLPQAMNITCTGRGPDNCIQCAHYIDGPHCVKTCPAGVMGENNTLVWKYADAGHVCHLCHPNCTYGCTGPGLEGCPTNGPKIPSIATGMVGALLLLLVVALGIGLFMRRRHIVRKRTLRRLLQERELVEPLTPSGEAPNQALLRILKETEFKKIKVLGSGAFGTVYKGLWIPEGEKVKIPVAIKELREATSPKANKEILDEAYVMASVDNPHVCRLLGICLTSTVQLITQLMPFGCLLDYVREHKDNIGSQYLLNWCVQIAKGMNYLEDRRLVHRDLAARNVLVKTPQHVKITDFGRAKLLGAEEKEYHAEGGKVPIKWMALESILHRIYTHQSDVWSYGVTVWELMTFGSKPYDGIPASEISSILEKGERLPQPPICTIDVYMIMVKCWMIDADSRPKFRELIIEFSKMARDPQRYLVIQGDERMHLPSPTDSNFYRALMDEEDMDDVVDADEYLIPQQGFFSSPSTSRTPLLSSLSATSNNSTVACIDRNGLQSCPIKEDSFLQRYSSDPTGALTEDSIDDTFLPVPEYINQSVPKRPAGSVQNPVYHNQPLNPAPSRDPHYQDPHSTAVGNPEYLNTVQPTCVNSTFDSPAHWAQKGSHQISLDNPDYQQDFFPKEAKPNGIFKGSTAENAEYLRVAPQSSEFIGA
Chain of H3255 (EGFR L858R) (P00533 25-1210 L858R): as above
Chain of HEKn (EGFR WT) (P00533 25-1210): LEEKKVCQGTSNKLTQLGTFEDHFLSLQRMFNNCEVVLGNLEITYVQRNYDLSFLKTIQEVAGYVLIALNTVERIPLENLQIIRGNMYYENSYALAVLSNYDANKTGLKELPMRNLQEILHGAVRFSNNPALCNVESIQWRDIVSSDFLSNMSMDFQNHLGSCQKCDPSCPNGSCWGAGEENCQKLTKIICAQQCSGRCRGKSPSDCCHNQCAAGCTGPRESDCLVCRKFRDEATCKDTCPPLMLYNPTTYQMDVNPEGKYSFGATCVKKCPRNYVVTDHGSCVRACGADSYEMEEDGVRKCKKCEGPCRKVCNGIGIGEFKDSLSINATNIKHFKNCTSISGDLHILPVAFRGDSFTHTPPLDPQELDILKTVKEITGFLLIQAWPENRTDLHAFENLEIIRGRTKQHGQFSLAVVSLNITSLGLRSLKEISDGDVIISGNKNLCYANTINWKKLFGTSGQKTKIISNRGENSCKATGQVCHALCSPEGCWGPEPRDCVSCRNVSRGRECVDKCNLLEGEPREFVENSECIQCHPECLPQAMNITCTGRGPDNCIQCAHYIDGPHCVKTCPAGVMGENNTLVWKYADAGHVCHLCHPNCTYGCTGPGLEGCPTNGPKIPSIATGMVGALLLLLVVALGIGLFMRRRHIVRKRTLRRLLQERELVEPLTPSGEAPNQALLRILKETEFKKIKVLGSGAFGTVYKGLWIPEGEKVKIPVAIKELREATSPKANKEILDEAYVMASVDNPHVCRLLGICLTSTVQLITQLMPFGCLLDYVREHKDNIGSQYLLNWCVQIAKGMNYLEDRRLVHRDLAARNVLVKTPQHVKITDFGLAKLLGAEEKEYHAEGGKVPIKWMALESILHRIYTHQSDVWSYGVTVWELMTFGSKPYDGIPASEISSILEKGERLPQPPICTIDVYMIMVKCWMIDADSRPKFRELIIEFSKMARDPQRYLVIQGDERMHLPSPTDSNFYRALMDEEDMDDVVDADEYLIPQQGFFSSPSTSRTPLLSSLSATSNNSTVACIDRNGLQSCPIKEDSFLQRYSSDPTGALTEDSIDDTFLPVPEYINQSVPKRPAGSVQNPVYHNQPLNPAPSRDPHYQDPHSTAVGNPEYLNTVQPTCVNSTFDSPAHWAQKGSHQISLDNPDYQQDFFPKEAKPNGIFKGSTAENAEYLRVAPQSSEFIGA
Chain of human EGFR WT (NIH/3T3 cells, EGF-induced) (P00533 25-1210): as above

For the compound `C=CC(=O)N1CCCC[C@@H](n2c(NC(=O)c3cccc(C(F)(F)F)c3)nc3cccc(C)c32)C1` (single isomer, unassigned) [Example 21-4], the IC50 in assay [1] is 13 nM; in assay [2], 0.002 µM; in assay [3] it was 1 nM; in assay [4] (setting [8]) it was less than 0.001 µM; in assay [4] (setting [9]), 0.006 µM; in assay [5] it was 0.004 µM. The IC50 in assay [6] was 285 nM; in assay [7], 0.239 µM.

With `C=CC(=O)N1CCC[C@@H](n2c(NC(=O)c3cccc(C(F)(F)F)c3)nc3cc(COCCOC)ccc32)C1` [Example 17-124], the IC50 is 490 nM in assay [1]; 0.023 µM in assay [2]; 22 nM in assay [3]; 0.008 µM in assay [4] (setting [8]); 0.2 µM in assay [4] (setting [9]); 0.271 µM in assay [5]. For the same compound, the figures for the IC50 in assay [6] and in assay [7] were more than 10000 nM and more than 10 µM, respectively.

As to `Cc1cccc2nc(NC(=O)c3cncc(C(F)(F)F)c3)n([C@@H]3CCCCN(C(=O)/C=C/CN(C)C)C3)c12` [Example 17-67], the IC50 in assay [1] was 15 nM; in assay [2], 0.001 µM; in assay [3], 2 nM; in assay [4] (setting [8]), less than 0.001 µM; in assay [4] (setting [9]), 0.003 µM; in assay [5], 0.004 µM. The IC50 in assay [6] is 249 nM; in assay [7] it was 0.05 µM.

For the compound `COc1ccc(C(=O)Nc2nc3cccc(C)c3n2C2CCCCN(C(=O)/C=C/CN(C)C)C2)cn1` (centres unmarked) [Example 17-45], the IC50 in assay [1] was 3 nM; in assay [2], 0.003 µM; in assay [3], 7 nM; in assay [4] (setting [8]) it was less than 0.001 µM; in assay [4] (setting [9]), 0.006 µM; in assay [5] it was 0.002 µM. The IC50 in assay [6] came out at 142 nM; in assay [7], 0.057 µM.

On to `C=CC(=O)N1CCC[C@@H](n2c(NC(=O)c3cccc(C(F)(F)F)c3)nc3cc(C(N)=O)ccc32)C1` [Example 19, (R)-1-(1-acryloylpiperidin-3-yl)-2-(3-(trifluoromethyl)benzamido)-1H-benzo[d]imidazole-5-carboxamide], for which the IC50 in assay [1] was 2020 nM; in assay [2] it was 0.026 µM; in assay [3], 168 nM; in assay [4] (setting [8]), 0.01 µM; in assay [4] (setting [9]), 0.218 µM; in assay [5], 0.226 µM. Also, the values for the IC50 in assay [6] and in assay [7] were more than 10000 nM and more than 10 µM, respectively.

As to `Cc1cc(C(=O)Nc2nc3cccc(Cl)c3n2[C@@H]2CCCCN(C(=O)/C=C/CN3CC[C@H](F)C3)C2)ccn1` [Example 3-2], the IC50 in assay [1] is 11 nM; in assay [2] it was 0.006 µM; in assay [3] it was 9 nM; in assay [4] (setting [8]) it was less than 0.001 µM; in assay [4] (setting [9]), 0.007 µM; in assay [5], 0.006 µM. Also, the IC50 in assay [6] came out at 720 nM; in assay [7] it was 0.303 µM.

For the compound `C=CC(=O)N1CCCC[C@@H](n2c(NC(=O)c3ccnnc3)nc3cccc(OC(C)C)c32)C1` [Example 17-86], the IC50 in assay [1] turned out to be 57 nM; in assay [2], 0.008 µM; in assay [3], 12 nM; in assay [4] (setting [8]), 0.004 µM; in assay [4] (setting [9]), 0.04 µM; in assay [5], 0.03 µM. Also, the figures for the IC50 in assay [6] and in assay [7] were 710 nM and 0.45 µM, respectively.

`CN(C)C/C=C/C(=O)N1CCCC[C@@H](n2c(NC(=O)c3ccnnc3)nc3cccc(Cl)c32)C1` [Example 17-16]: the IC50 was 28 nM in assay [1]; 0.017 µM in assay [2]; 10 nM in assay [3]; less than 0.001 µM in assay [4] (setting [8]); 0.007 µM in assay [4] (setting [9]); 0.015 µM in assay [5]. In addition, the IC50 in assay [6] came to 295 nM; in assay [7] it was 0.282 µM.

As for `C=CC(=O)N1CCC[C@@H](n2c(NC(=O)c3ccccc3)nc3cccc(C)c32)C1` [Example 17-108], the IC50 was 44 nM in assay [1]; 0.021 µM in assay [2]; 14 nM in assay [3]; 0.005 µM in assay [4] (setting [8]); 0.048 µM in assay [4] (setting [9]); 0.306 µM in assay [5]. The results for the IC50 in assay [6] and in assay [7] were more than 10000 nM and more than 10 µM, respectively.

`COc1ccc2nc(NC(=O)c3ccnnc3)n([C@@H]3CCCCN(C(=O)/C=C/CN(C)C)C3)c2c1Cl` [Example 17-2]: the IC50 in assay [1] was determined as 170 nM; in assay [2], 0.015 µM; in assay [3], 76 nM; in assay [4] (setting [8]) it was 0.002 µM; in assay [4] (setting [9]) it was 0.018 µM; in assay [5], 0.018 µM. For the same compound, the IC50 was 2340 nM in assay [6] and 0.38 µM in assay [7].

Turning to `C=CC(=O)N1CCCC[C@@H](n2c(NC(=O)c3ccnc(C)c3)nc3cccc(Cl)c32)C1` [Example 17-17], the IC50 in assay [1] is 8 nM; in assay [2], 0.005 µM; in assay [3], 3 nM; in assay [4] (setting [8]), less than 0.001 µM; in assay [4] (setting [9]) it was 0.004 µM; in assay [5], 0.008 µM. Moreover, the figures for the IC50 in assay [6] and in assay [7] were 176 nM and 0.211 µM, respectively.

For the compound `C=CC(=O)N1CCCC[C@@H](n2c(NC(=O)c3ccccc3)nc3cccc(CN4CCS(=O)(=O)CC4)c32)C1` [Example 17-132], the IC50 in assay [1] is 108 nM; in assay [2], 0.012 µM; in assay [3] it was 9 nM; in assay [4] (setting [8]) it was 0.001 µM; in assay [4] (setting [9]) it was 0.041 µM; in assay [5], 0.047 µM. The IC50 in assay [6] was determined as 2850 nM; in assay [7], 2.87 µM.

With `Cc1cccc2nc(NC(=O)c3cncc(-n4cccc4)c3)n([C@@H]3CCCCN(C(=O)/C=C/CN(C)C)C3)c12` [Example 17-70], the IC50 in assay [1] was 7 nM; in assay [2], less than 0.001 µM; in assay [3], less than 1 nM; in assay [4] (setting [8]), less than 0.001 µM; in assay [4] (setting [9]) it was less than 0.001 µM; in assay [5], 0.001 µM. Moreover, the IC50 in assay [6] was found to be 185 nM; in assay [7] it was 0.035 µM.
